PubChem BioAssay AID328 (DTP/NCI, 2004)
Where “and” joins values, the source holds several entries; their conditions need not be identical. Equal values may be shown once. Toxic doses and inconclusive results are not listed.

System: BDF1 mice, P388 leukemia ip, median survival T/C
Experiment: NCI In Vivo Anticancer Drug Screen. Data for tumor model P388 Leukemia (intraperitoneal) in B6D2F1 (BDF1) mice
Settings: endpoint: median survival time, higher = longer survival
Procedure, shortened: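 T/C = treated-group survival ÷ vehicle-control survival; tumour transplanted into mice before dosing.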

[1] = dose: 50.0 mg/kg/injection, schedule: Q01DX009 (ip), vehicle: saline with Tween-80
[2] = dose: 100.0 mg/kg/injection, schedule: Q01DX009 (ip), vehicle: saline with Tween-80
[3] = dose: 200.0 mg/kg/injection, schedule: Q01DX009 (ip), vehicle: saline with Tween-80
[4] = dose: 100.0 mg/kg/injection, schedule: Q04DX003 (ip), vehicle: Klucel (hydroxypropylcellulose) (HPC)
[5] = dose: 200.0 mg/kg/injection, schedule: Q04DX003 (ip), vehicle: Klucel (hydroxypropylcellulose) (HPC)
[6] = dose: 400.0 mg/kg/injection, schedule: Q04DX003 (ip), vehicle: Klucel (hydroxypropylcellulose) (HPC)
[7] = dose: 50.0 mg/kg/injection, schedule: Q04DX003 (ip), vehicle: saline with Tween-80
[8] = dose: 200.0 mg/kg/injection, schedule: Q04DX003 (ip), vehicle: saline with Tween-80
[9] = dose: 100.0 mg/kg/injection, schedule: Q04DX003 (ip), vehicle: saline sonified
[10] = dose: 200.0 mg/kg/injection, schedule: Q04DX003 (ip), vehicle: saline sonified
[11] = dose: 50.0 mg/kg/injection, schedule: Q04DX003 (ip), vehicle: saline
[12] = dose: 25.0 mg/kg/injection, schedule: Q01DX009 (ip), vehicle: saline

In the case of `COc1ccc2c3c(ccc2c1)C1=C(C(=O)O)CC(=O)C1(C)CC3` (centres undefined), the T/C (dose: 100.0 mg/kg/injection, schedule: Q04DX003 (sc), vehicle: steriod suspending solution) is reported as 108 % of control, the T/C (dose: 200.0 mg/kg/injection, schedule: Q04DX003 (sc), vehicle: steriod suspending solution) is reported as 100 % of control and the T/C (dose: 400.0 mg/kg/injection, schedule: Q04DX003 (sc), vehicle: steriod suspending solution) is reported as 95 % of control.
With `O=C1OC2=C(Cl)C=CC=CC2C12C1C=CC=CC12` (centres undefined) the T/C [1] was 113 % of control, the T/C [2] was 110 % of control and the T/C [3] was 107 % of control.
`NC1(C(=O)O)CCCC1` was tested, and the T/C (dose: 20.0 mg/kg/injection, schedule: Q01DX010 (ip), vehicle: water) was 100 % of control, the T/C (dose: 22.5 mg/kg/injection, schedule: Q01DX010 (ip), vehicle: saline) was 100 % of control and 120 % of control and the T/C (dose: 25.0 mg/kg/injection, schedule: Q01DX009 (ip), vehicle: carboxymethylcellulose (CMC)) was 93 % of control. The T/C (dose: 45.0 mg/kg/injection, schedule: Q01DX010 (ip), vehicle: saline) was 110 % of control, the T/C (dose: 50.0 mg/kg/injection, schedule: Q01DX009 (ip), vehicle: carboxymethylcellulose (CMC)) was 92 % of control and the T/C (dose: 80.0 mg/kg/injection, schedule: Q01DX010 (ip), vehicle: water) was 110 % of control. The T/C (dose: 90.0 mg/kg/injection, schedule: Q01DX010 (ip), vehicle: saline) was 185 % of control, the T/C [2] was 100 % of control and the T/C (dose: 200.0 mg/kg/injection, schedule: Q01DX009 (ip), vehicle: carboxymethylcellulose (CMC)) was 87 % of control. For the same molecule, the T/C [3] was 90 % of control.
For `O=c1[nH]c(Cl)ncc1F`, the T/C (dose: 67.0 mg/kg/injection, schedule: Q01DX009 (ip), vehicle: saline with Tween-80) was 100 % of control, the T/C (dose: 75.0 mg/kg/injection, schedule: Q04DX003 (ip), vehicle: saline with Tween-80) was 113 % of control and the T/C [2] was 103 % of control. The T/C (dose: 150.0 mg/kg/injection, schedule: Q01DX009 (ip), vehicle: saline with Tween-80) was 107 % of control, the T/C (dose: 150.0 mg/kg/injection, schedule: Q04DX003 (ip), vehicle: saline with Tween-80) was 100 % of control and the T/C (dose: 225.0 mg/kg/injection, schedule: Q01DX009 (ip), vehicle: saline with Tween-80) was 111 % of control. For the same molecule, the T/C (dose: 300.0 mg/kg/injection, schedule: Q04DX003 (ip), vehicle: saline with Tween-80) was 86 % of control.
For `Cc1c([N+](=O)[O-])c(C)c([N+](=O)[O-])c(C(C)(C)C)c1[N+](=O)[O-]`, the T/C (dose: 100.0 mg/kg/injection, schedule: Q01DX009 (ip), vehicle: Klucel (hydroxypropylcellulose) (HPC)) was 100 % of control, the T/C [4] was 87 % of control and the T/C (dose: 200.0 mg/kg/injection, schedule: Q01DX009 (ip), vehicle: Klucel (hydroxypropylcellulose) (HPC)) was 87 % of control. For the same molecule, the T/C [5] was 87 % of control, the T/C (dose: 400.0 mg/kg/injection, schedule: Q01DX009 (ip), vehicle: Klucel (hydroxypropylcellulose) (HPC)) was 95 % of control and the T/C [6] was 91 % of control.
With `COc1ccc2c(c1O)-c1cccc3c1[C@@H](C2)N(CCCl)CC3` the T/C (dose: 25.0 mg/kg/injection, schedule: Q04DX003 (ip), vehicle: saline with Tween-80) was 161 % of control and the T/C [7] was 161 % of control.
With `O=C(O)/C=N/NS(=O)(=O)/C=C/c1ccccc1` the T/C (dose: 50.0 mg/kg/injection, schedule: Q01DX009 (ip), vehicle: other) was 155 % of control and the T/C (dose: 100.0 mg/kg/injection, schedule: Q01DX009 (ip), vehicle: other) was 186 % of control.
With `Cc1ccc(C(=O)C2CC2)cc1C` the T/C (dose: 33.0 mg/kg/injection, schedule: Q01DX009 (ip), vehicle: saline with Tween-80) was 96 % of control, the T/C [1] was 103 % of control and the T/C [7] was 104 % of control. For the same molecule, the T/C (dose: 75.0 mg/kg/injection, schedule: Q01DX009 (ip), vehicle: saline with Tween-80) was 111 % of control, the T/C (dose: 100.0 mg/kg/injection, schedule: Q04DX003 (ip), vehicle: saline with Tween-80) was 112 % of control and the T/C [3] was 120 % of control. For the same molecule, the T/C [8] was 112 % of control.
With `CCOC(=O)c1cc(C=O)c[nH]1` the T/C [1] was 93 % of control, the T/C [2] was 99 % of control and the T/C [3] was 101 % of control.
`CCOc1ccc(/C=N\N=C\c2ccc(OCC)cc2)cc1` was tested, and the T/C (dose: 12.5 mg/kg/injection, schedule: Q01DX009 (ip), vehicle: Klucel (hydroxypropylcellulose) (HPC)) was 100 % of control, the T/C (dose: 25.0 mg/kg/injection, schedule: Q01DX009 (ip), vehicle: Klucel (hydroxypropylcellulose) (HPC)) was 96 % of control and the T/C [4] was 109 % of control. For the same molecule, the T/C [5] was 90 % of control and the T/C [6] was 90 % of control.
In the case of `O=C1NC(=O)C(c2ccc(Cl)cc2)(c2ccccc2Cl)N1` (centres undefined), the T/C [9] is reported as 100 % of control, the T/C [10] is reported as 95 % of control and the T/C (dose: 400.0 mg/kg/injection, schedule: Q04DX003 (ip), vehicle: saline sonified) is reported as 100 % of control.
For `CCCCCCCCCCCCCCCCCC[N+](C)(C)C`, the T/C (dose: 1.56 mg/kg/injection, schedule: Q04DX003 (ip), vehicle: saline) was 115 % of control, the T/C (dose: 3.12 mg/kg/injection, schedule: Q04DX003 (ip), vehicle: saline) was 115 % of control and the T/C (dose: 4.12 mg/kg/injection, schedule: Q01DX009 (ip), vehicle: saline) was 115 % of control. The T/C (dose: 6.25 mg/kg/injection, schedule: Q01DX009 (ip), vehicle: saline) was 90 % of control, the T/C (dose: 6.25 mg/kg/injection, schedule: Q04DX003 (ip), vehicle: saline) was 120 % of control and the T/C (dose: 9.2 mg/kg/injection, schedule: Q04DX003 (ip), vehicle: saline) was 104 % of control. For the same molecule, the T/C (dose: 14.0 mg/kg/injection, schedule: Q04DX003 (ip), vehicle: saline) was 100 % of control and the T/C (dose: 21.0 mg/kg/injection, schedule: Q04DX003 (ip), vehicle: saline) was 90 % of control.
With `CCCCCCCCCCCCCCOc1ccc(Cc2ccccc2)cc1` the T/C [4] was 100 % of control and the T/C [5] was 90 % of control.
In the case of `NOCc1cccc([N+](=O)[O-])c1`, the T/C [11] is reported as 100 % of control, the T/C (dose: 100.0 mg/kg/injection, schedule: Q04DX003 (ip), vehicle: saline) is reported as 91 % of control and the T/C (dose: 200.0 mg/kg/injection, schedule: Q04DX003 (ip), vehicle: saline) is reported as 91 % of control.
With `CNC=O` the T/C (dose: 7.5 mg/kg/injection, schedule: Q01DX010 (ip), vehicle: saline) was 100 % of control, the T/C (dose: 15.0 mg/kg/injection, schedule: Q01DX010 (ip), vehicle: saline) was 104 % of control and 109 % of control and the T/C (dose: 30.0 mg/kg/injection, schedule: Q01DX010 (ip), vehicle: saline) was 104 % of control and 118 % of control. For the same molecule, the T/C (dose: 60.0 mg/kg/injection, schedule: Q01DX010 (ip), vehicle: saline) was 109 % of control and 113 % of control, the T/C (dose: 300.0 mg/kg/injection, schedule: Q01DX010 (ip), vehicle: saline) was 154 % of control and the T/C (dose: 455.0 mg/kg/injection, schedule: Q01DX010 (ip), vehicle: saline) was 154 % of control. For the same molecule, the T/C (dose: 680.0 mg/kg/injection, schedule: Q01DX010 (ip), vehicle: saline) was 91 % of control.
`CCCCCCCCCCCCCC(=O)CC` was tested, and the T/C (dose: 85.0 mg/kg/injection, schedule: Q04DX003 (ip), vehicle: saline with Tween-80) was 91 % of control, the T/C (dose: 135.0 mg/kg/injection, schedule: Q04DX003 (ip), vehicle: saline with Tween-80) was 91 % of control and the T/C [8] was 87 % of control.
With `O=C(O)CC[n+]1c(/C=C/c2cc(Br)c(O)c(Br)c2)sc2ccccc21` the T/C (dose: 50.0 mg/kg/injection, schedule: Q04DX003 (ip), vehicle: saline sonified) was 100 % of control, the T/C [9] was 100 % of control and the T/C [10] was 100 % of control.
In the case of `C1O[C@@H]1[C@H]1CO1`, the T/C [12] is reported as 150 % of control and the T/C (dose: 37.5 mg/kg/injection, schedule: Q01DX009 (ip), vehicle: saline) is reported as 186 % of control.
For `COC(=O)C(C)CN1CCCCC1` (centres undefined), the T/C (dose: 50.0 mg/kg/injection, schedule: Q01DX009 (ip), vehicle: saline) was 105 % of control, the T/C (dose: 100.0 mg/kg/injection, schedule: Q01DX009 (ip), vehicle: saline) was 110 % of control and the T/C (dose: 200.0 mg/kg/injection, schedule: Q01DX009 (ip), vehicle: saline) was 110 % of control.
With `CC1(C)N=C(N)N=C(N)N1c1ccc(OCCCOc2ccc(S(=O)(=O)F)cc2)c(Cl)c1` the T/C (dose: 0.66 mg/kg/injection, schedule: Q01DX009 (ip), vehicle: saline) was 108 % of control, the T/C (dose: 0.99 mg/kg/injection, schedule: Q01DX009 (ip), vehicle: saline) was 104 % of control and the T/C (dose: 12.5 mg/kg/injection, schedule: Q01DX009 (ip), vehicle: saline) was 165 % of control. For the same molecule, the T/C [12] was 115 % of control, the T/C (dose: 33.0 mg/kg/injection, schedule: Q04DX003 (ip), vehicle: saline) was 109 % of control and 120 % of control and the T/C [11] was 114 % of control and 120 % of control. The T/C (dose: 75.0 mg/kg/injection, schedule: Q04DX003 (ip), vehicle: saline) was 114 % of control.
